Literature values as cited in US20220313614A1, “EN[…] […] AND METHODS OF PREPARATION THEREOF” (Altria Client Services LLC, priority 2021, published 2022).

Details: free base (non-protonated)

CN1CCCC1c1cccnc1 (stereo not shown) [Free-base nicotine, 3-(1-methyl-2-pyrrolidinyl) pyridine]
pKa value: about 8
